Experimental data from patent US20120245180A1, “COMBINATION” (GlaxoSmithKline LLC, priority 2009, published 2012).
Read-outs that look alike come from different tables or passages of the source.

What was measured:
SNU449 = test: Cell growth inhibition assay, hepatocellular carcinoma cell line (Cell Titer Glo); format: cell-based, human; conditions: 3 days
Experimental: (§1) Human tumor cell lines from hepatocellular carcinoma (HCC), C3A, Hep3B, HepG2, PLC/PRF/5, SNU182, SNU387, SNU398, SNU423, SNU449 and SNU475 were purchased from the ATCC. Human breast tumor cell lines, HCC2218, HCC1419, BT-474, SK-BR-3, UACC893, JIMT-1, MDA-MB-361, HCC202, MDA-MB-175-VII, HCC1569, HCC1937, HCC38, MDA-MB-157, HCC1954, HCC1500, BT483, KPL-1, SUM225 and ZR-75-1 from ATCC, SUM52 and SUM190 from Asterand, PLC (Detroit Mich.), were cultured in RPMI 1640 medium containing 10% FBS; SKBR3-W13 and BT-474-J4 cultured in RPMI 1640 medium containing 10% FBS and 1 μM lapatinib; KPL4 line was kindly provided by Dr Junichi Kurebayashi (Kawasaki Medical School, Okayama, Japan) and cultured in DMEM containing 5% FBS. JIMT-1 from European Collection of Cell Cultures (UK), is a line derived from a patient clinically resistant to trastuzumab (Herceptin®). SK-BR-3-W13 is a single cell clone isolated by a cloning cylinder after a single treatment of SK-BR-3 cells with 0.5 μM lapatinib. BT-474-J4 is a single cell clone derived from a pool of BT-474 cells that were selected to grow in lapatinib to a concentration of 3 μM.
Cells were seeded in a 96-well tissue culture plate (NUNC 136102) of RPMI medium containing 10% FBS at 500-2,000 cells per well. […] ATP levels were determined by adding Cell Titer Glo® (Promega) according to the manufacturer's protocol. Briefly, Cell Titer Glo® was added to each plate, incubated for 20 minutes then luminescent signal was read on the SpectraMax L plate reader with a 0.5 sec integration time. […]
(§2) Inhibition of cell growth was estimated after treatment with compound or combination of compounds for three days and comparing the signal to cells treated with vehicle (DMSO). Cell growth was calculated relative to vehicle (DMSO) treated control wells. […]
(§3) Combination effects on potency were evaluated using the Combination Index (CI) and Excess Over Highest Single Agent (EHOSA) methods.

KPL1 = test: Cell growth inhibition assay, breast tumor cell line (Cell Titer Glo); format: cell-based; conditions: Homo sapiens, KPL-1, 72 h, KPL1 (HER2−), 3 days
Experimental: as §1
(§4) Cells were seeded in a 96-well tissue culture plate (NUNC 136102) of RPMI medium containing 10% FBS at 500-2,000 cells per well. Approximately 24 hours after plating, cells were exposed to ten, two-fold or three-fold serial dilutions of either Compound A or B or the combination of the two agents at a 2:1 molar ratio (Compounds A and B respectively). In some cases, cells were grown in RPMI media containing 10% FBS and in the presence or absence of 2 ng/mL hepatocyte growth factor (HGF). Cells were incubated in the presence of compounds for 3 days. ATP levels were determined by adding Cell Titer Glo® (Promega) according to the manufacturer's protocol. Briefly, Cell Titer Glo® was added to each plate, incubated for 20 minutes then luminescent signal was read on the SpectraMax L plate reader with a 0.5 sec integration time. All assays were run at least in duplicate.
as §2, with “wells. Concentration of compound that inhibits 50% of control cell growth (IC50) was back-interpolated when y=50% of DMSO treated control wells using nonlinear regression with the equation:” for “wells.”
(§5) where A is the minimum response (ymin), B is the maximum response (Ymax), C is the inflection point of the curve (EC50) and D is the Hill coefficient.
as §3
(§6) DNA Copy number data on the HER2 gene was collected for all breast cancer cell lines using the Affymetrix 500K chip (Affymetrix Inc, Sunnyvale, Calif.). Briefly DNA was extracted from each line, digested with the restriction enzyme Nsp or Sty, ligated to an adaptor and amplified by PCR. After PCR, DNA was fragmented, labeled, denatured, and hybridized to the Affymetrix 500K chip. Upon completion of hybridization, each assay was washed and stained. Image data were acquired. Similarly collected data from a panel 10 diploid non-tumorigenic lymphoblastic cell lines were used to calculate DNA copy number. All ‘SNP Chip’ images ('CEL files'), were extracted, read and normalized using the dChip software package (Lin et al. 2004. Bioinformatics. 20:1233-40). SNP-wise ‘copy-number ratios’ (log2 scale) were calculated for all cancer cell lines using the lymphoblastic reference panel and analyzed by circular binary segmentation to reduce noise (Olshen et al. 2004. Biostatistics. 5:557-72). Cell lines with log2 ratios of HER2>0.65 were considered HER2+.

MDA-MB-361 = test: as above; format: cell-based; conditions: Homo sapiens, 72 h, MDA-MB-361 (HER2+), 3 days
Experimental: as §1, §4
as §2, with “wells. Concentration of compound that inhibits 50% of control cell growth (IC50) was back-interpolated when y=50% of DMSO treated control wells using nonlinear regression with the equation:” for “wells.”
as §5, §3, §6

JIMT-1 = test: as above; format: cell-based; conditions: Homo sapiens, 72 h, JIMT-1 (HER2+), 3 days
Experimental: as §1, §4
as §2, with “wells. Concentration of compound that inhibits 50% of control cell growth (IC50) was back-interpolated when y=50% of DMSO treated control wells using nonlinear regression with the equation:” for “wells.”
as §5, §3, §6

MDA-MB-157 = test: as above; format: cell-based; conditions: Homo sapiens, 72 h, MDA-MB-157 (HER2−), 3 days
Experimental: as §1, §4
as §2, with “wells. Concentration of compound that inhibits 50% of control cell growth (IC50) was back-interpolated when y=50% of DMSO treated control wells using nonlinear regression with the equation:” for “wells.”
as §5, §3, §6

UACC893 = test: as above; format: cell-based; conditions: Homo sapiens, UACC-893, 72 h, UACC893 (HER2+), 3 days
Experimental: as §1, §4
as §2, with “wells. Concentration of compound that inhibits 50% of control cell growth (IC50) was back-interpolated when y=50% of DMSO treated control wells using nonlinear regression with the equation:” for “wells.”
as §5, §3, §6

HCC1569 = test: as above; format: cell-based; conditions: Homo sapiens, 72 h, HCC1569 (HER2−), 3 days
Experimental: as §1, §4
as §2, with “wells. Concentration of compound that inhibits 50% of control cell growth (IC50) was back-interpolated when y=50% of DMSO treated control wells using nonlinear regression with the equation:” for “wells.”
as §5, §3, §6

BT483 = test: as above; format: cell-based; conditions: Homo sapiens, BT-483, 72 h, BT483 (HER2−), 3 days
Experimental: as §1, §4
as §2, with “wells. Concentration of compound that inhibits 50% of control cell growth (IC50) was back-interpolated when y=50% of DMSO treated control wells using nonlinear regression with the equation:” for “wells.”
as §5, §3, §6

MDA-MB-175-VII = test: as above; format: cell-based; conditions: Homo sapiens, 72 h, MDA-MB-175-VII (HER2−), 3 days
Experimental: as §1, §4
as §2, with “wells. Concentration of compound that inhibits 50% of control cell growth (IC50) was back-interpolated when y=50% of DMSO treated control wells using nonlinear regression with the equation:” for “wells.”
as §5, §3, §6

HCC1954 = test: as above; format: cell-based; conditions: Homo sapiens, 72 h, HCC1954 (HER2+), 3 days
Experimental: as §1, §4
as §2, with “wells. Concentration of compound that inhibits 50% of control cell growth (IC50) was back-interpolated when y=50% of DMSO treated control wells using nonlinear regression with the equation:” for “wells.”
as §5, §3, §6

SUM52 = test: as above; format: cell-based; conditions: Homo sapiens, 72 h, SUM52 (HER2−), 3 days
Experimental: as §1, §4
as §2, with “wells. Concentration of compound that inhibits 50% of control cell growth (IC50) was back-interpolated when y=50% of DMSO treated control wells using nonlinear regression with the equation:” for “wells.”
as §5, §3, §6

BT474-J4 = test: as above; format: cell-based; conditions: Homo sapiens, 72 h, BT474-J4 (HER2+), 3 days
Experimental: as §1, §4
as §2, with “wells. Concentration of compound that inhibits 50% of control cell growth (IC50) was back-interpolated when y=50% of DMSO treated control wells using nonlinear regression with the equation:” for “wells.”
as §5, §3, §6

SNU387 = test: Cell growth inhibition assay, hepatocellular carcinoma cell line (Cell Titer Glo); format: cell-based; conditions: Homo sapiens, SNU-387, 72 h, 3 days
Experimental: as §1, §4
as §2, with “wells. Concentration of compound that inhibits 50% of control cell growth (IC50) was back-interpolated when y=50% of DMSO treated control wells using nonlinear regression with the equation:” for “wells.”
as §5, §3

[1] = read-out: Single agent IC50, Compound A
[2] = read-out: Single agent IC50, Compound B

CC(=O)Nc1cccc(-n2c(=O)n(C3CC3)c(=O)c3c(Nc4ccc(I)cc4F)n(C)c(=O)c(C)c32)c1 [Compound A, N-{3-[3-cyclopropyl-5-[(2-fluoro-4-iodophenyl)amino]-6,8-dimethyl-2,4,7-trioxo-3,4,6,7-tetrahydropyrido[4,3-d]pyrimidin-1(2H)-yl]phenyl}acetamide]
IC50 (SNU449; Homo sapiens, SNU-449, 72 h, SNU449, HGF −, read-out: Single agent IC50, Compound A): > 5000 nM
IC50 (SNU449; SNU449, HGF + (2 ng/ml), read-out: Single agent IC50, Compound A): > 5000 nM
IC50 (KPL1; [1]): > 1000 nM
IC50 (MDA-MB-361; [1]): > 1000 nM
IC50 (JIMT-1; [1]): > 1000 nM
IC50 (MDA-MB-157; [1]): > 1000 nM
IC50 (UACC893; [1]): > 1000 nM
IC50 (HCC1569; [1]): > 1000 nM
IC50 (BT483; [1]): > 1000 nM
IC50 (MDA-MB-175-VII; [1]): 99 ± 97 nM
IC50 (HCC1954; [1]): 1020 ± 839 nM
IC50 (SUM52; [1]): 9 ± 5 nM
IC50 (BT474-J4; [1]): > 1000 nM
IC50 (SNU387; SNU387, HGF + (2 ng/ml), read-out: Single agent IC50, Compound A): 94 ± 21 nM
IC50 (SNU387; SNU387, HGF −, read-out: Single agent IC50, Compound A): 74 ± 46 nM

COc1ncc(-c2ccc3nccc(-c4ccnnc4)c3c2)cc1NS(=O)(=O)c1ccc(F)cc1F [Compound B, 2,4-difluoro-N-{2-(methyloxy)-5-[4-(4-pyridazinyl)-6-quinolinyl]-3-pyridinyl}benzenesulfonamide]
IC50 (SNU449; Homo sapiens, SNU-449, 72 h, SNU449, HGF −, read-out: Single agent IC50, Compound B): 24 ± 5 nM
IC50 (KPL1; [2]): 8 ± 4 nM
IC50 (MDA-MB-361; [2]): 9 ± 2 nM
IC50 (JIMT-1; [2]): 28 ± 5 nM
IC50 (MDA-MB-157; [2]): > 1000 nM
IC50 (UACC893; [2]): 3 ± 3 nM
IC50 (HCC1569; [2]): 76 ± 42 nM
IC50 (BT483; [2]): 106 ± 81 nM
IC50 (MDA-MB-175-VII; [2]): 7 ± 1 nM
IC50 (HCC1954; [2]): 11 ± 3 nM
IC50 (SUM52; [2]): 4 nM
IC50 (BT474-J4; [2]): 14 ± 8 nM
IC50 (SNU387; SNU387, HGF + (2 ng/ml), read-out: Single agent IC50, Compound B): 71 ± 10 nM
IC50 (SNU387; SNU387, HGF −, read-out: Single agent IC50, Compound B): 103 ± 10 nM
